Reference: US7893024B2, “Enhancement of iron chelation therapy” (priority 2002, dated 2011)
Several values for one entry are separate records, joined by “and”; a condition that tells them apart may be missing. Equal entries are not always repeated. Structures can show the parent of a compound that is named as a salt.

What was measured:
[1] = molecular target: T1, ferritin (Aquarana catesbeiana, UniProt P07229); experiment: Iron release from mineralized recombinant ferritin monitored as formation of Fe(II)-bipyridyl (A522 nm), NADH/FMN reductant; format: biochemical; settings: for increase in the initial rate of iron release: in combination with the chelator 2,2′-bipyridine
T1 construct: made in house; host or cells: E. coli BL21-DE3-PLysS, vector pET-9a
T1 sequence (P07229 2-176): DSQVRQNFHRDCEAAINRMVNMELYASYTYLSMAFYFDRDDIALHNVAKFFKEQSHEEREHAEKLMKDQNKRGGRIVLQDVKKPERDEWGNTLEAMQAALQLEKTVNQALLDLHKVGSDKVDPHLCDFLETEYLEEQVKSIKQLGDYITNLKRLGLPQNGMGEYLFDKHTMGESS
Procedure: Briefly, as described in further detail below, recombinant ferritin was expressed, isolated, and mineralized. The mineralized, recombinant ferritin was incubated with a protein unfolding reagent (e.g., urea, guanidine, or Triton X-100). Chelator and reductant was then added to the reaction, and rates of iron release were monitored by UV absorbance detection of formation of Fe(II)-bipyridyl (A522 nm/sec).
Production of recombinant ferritin. Recombinant ferritin was expressed using bullfrog sequences as the kinetic properties have been particularly favorable for study (Takagi H., et al. (1998) J. Biol. Chem. 273:18685)(18)(19)(20). Crystallographic studies of frog and human ferritins (Trikha, J., Theil, E. C. & Allewell, N. M. (1995) J Mol Biol 248, 949-67)(Hempstead, P. D., Yewdall, S. J., Fernie, A. R., Lawson, D. M., Artymiuk, P. J., Rice, D. W., Ford, G. C., & Harrison, P. M. (1997) J. Mol. Biol. 268, 424-448) show very similar structures and mechanisms (Bou-Abdallah, F., Papaefthymiou, G. C., Scheswohl, D. M., Stanga, S. D., Arosio, P. & Chasteen, N. D. (2002) Biochem J. 364, 57-63)(Hwang, J., Krebs, C., Huynh, B. H., Edmondson, D. E., Theil, E. C. & Penner-Hahn, J. E. (2000) Science 287, 122-125)(18). […] Two proteins were compared in the study: H-wild type and H-L134P, an “open” pore protein for which the crystal structure is known (Takagi H., et al. (1998) J. Biol. Chem. 273:18685). Sequences coding H-wild type and H-L134P ferritin were inserted into the vector pET-9a and expressed in E. coli BL21-DE3-PLysS (Stratagene®). The recombinant proteins were isolated as the 24-subunit assembly without Fe (<0.5/subunit) using methods previously described (20).
Mineralization of ferritin. Recombinant ferritin was mineralized by adding a freshly prepared, acidic solution of FeSO4 (to minimize oxidation and hydrolysis) to apoferritin in buffer and incubating at room temperature for 1 hour and then overnight at 4° C., to complete hydrolysis of ferric mineral precursors (18). The final solution was 2.08 μM protein with 480 Fe/protein ([…]) in 0.1 M MOPS, 0.1M NaCl, pH=7. Sterile solutions of mineralized ferritin are stable for months to years.
Measurement of iron release rates. Rates of Fe exit from ferritin (rates of dissolving the Fe biomineral) were monitored as formation of Fe(II)-bipyridyl (A522 nm/sec). The reaction was started by mixing an equal volume of mineralized ferritin with an equal volume of a solution of a NADH (5 mM), FMN (5 mM), and bipyridyl (5 mM) as first described by Jones and Walsh (21). The initial rates of iron chelation were calculated by taking the linear ascending part of the multiphasic reaction curve, averaged from 3 independent assays/protein preparations and 2-3 independent protein preparations.
Triton X-100 and Urea. One set of reactions was treated with Triton X-100 at final concentrations of 0.1%, 1.0% or 10% (volume/volume). A second set of reactions was treated with urea at final concentrations of 1 mM, 10 mM, or 1M. A third set of reactions was treated with a control solution containing only buffer. All three sets of ferritin solutions were incubated further for 17-20 hours (i.e., overnight) at 4° C., then returned to room temperature. Iron release was initiated by the addition of 2.5 mM bipyridine, 2.5 mM NADH, and 2.5 mM FMN (final concentrations). The amount of iron released from ferritin was monitored at room temperature, over a period of one hour, by appearance of absorbance at 522 nm due to formation of the Fe(II)-bipyridyl complex.
Urea, Guanidine HCl, and Triton X-100. The effects on iron release from ferritin of urea, guanidine hydrochloride, and Triton X-100 were studied by mixing solutions of the mineralized protein with a protein unfolding reagent and incubating at room temperature for 1 hour, followed by incubating overnight at 4° C. before adding reductant and chelator. […]

[2] = tested on: HeLa cells; experiment: Cell viability by trypan blue exclusion test
Procedure: HeLa cells, cultured in DMEM medium with 10% FBS, were incubated with the protein unfolding agents for 24 hours at 37° C. in 12-well plates. Cells were treated with trypsin, fresh medium was added and the cells were suspended in the fresh DMEM medium with 10% FBS. Cell suspensions were mixed 1:4 with trypan blue in 0.85% NaCl (weight/volume), incubated 5 minutes at room temperature, then examined by light microscopy in a hemocytometer chamber. Blue cells are scored as non-viable. For each condition, 1-3 analyses were performed.

[3] = molecular target: T1, ferritin; experiment: Subdomain unfolding of ferritin by circular dichroism (helix/coil transition); set-up: species or system bullfrog
Procedure: The effects of protein unfolding agents on subdomain unfolding of ferritin were monitored as changes in the Circular Dichroism (CD) spectra. Both wild type ferritin (H-WT) and the open pore mutant H-L134P were analyzed. Solutions of mineralized protein (2.08×10^−1 μM in 10 mM MOPS buffer, pH 7.0), were incubated with or without 1 mM urea overnight as described herein, and equilibrated for 10 minutes at the selected temperature before recording spectra between 300 nm to 200 nm. CD spectra recorded on a Pi-180 spectrophotometer (Applied Photophysics, Surrey, UK) over the temperature range of 5° C. to 65° C. Spectra were recorded in a cuvette with a 1 cm path length at protein concentrations of 2×10^−7 M, except for H-L134P, the protein with fully open pores in protein crystals, where the concentration was 4×10^−7 M to compensate for the lower signal at higher temperatures. Contributions of the solvent to the protein spectra were subtracted. Molar ellipticities at 220 nm were determined from the optical rotation, and the percent alpha helix content was calculated as described by Frére et al (Frere, V., Sourgen, F., Monnot, M., Troalen, F. & Fermandjian, S. (1995) J Biol Chem 270, 17502-17507) and Zhong and Johnson (Zhong, L. & Johnson, W. C. J. (1992) Proc Natl Acad Sci USA 89, 4462-4465). Curves were fit to the data using Sigmaplot 8.0. Fits and data matched with P<0.001. Data presented for H-L 134P ferritin are representative of two sets of measurements on one preparation and the data for the H-wild type protein, with and without urea, are representative of 3 independent protein preparations.

[4] = molecular target: T1, ferritin; experiment: Fe uptake and mineralization / Fe(II) oxidation at the ferroxidase site (A650); format: biochemical, bullfrog
Procedure: The temperature of the helix coil/transition in the pore was lower in both H-L134P protein and the wild type protein +1 mM urea (FIG. 3B) and is in the physiological range. […] However, the stability of the partially unfolded H-L 134P protein was lower, and loss of helix continued between 45° C. and 65° C. […] Rates were 1.9±0.1×10^−3, 2.93±0.1×10^−3 and 4.68±0.06×10^−3 mmoles/second for H-WT ferritin+1 mM urea, H-L134P ferritin and Wild Type H ferritin+1M urea, respectively (FIGS. 2A, B). The local nature of the helix/coil transition induced by 1 mM urea observed between 35° C. and 50° C. (FIG. 3B), is emphasized by the small effects on other ferritin functions such as Fe uptake and mineralization where the rates were 0.67±0.01 and 0.57±0.01 ΔA650s^−1 for zero and 10 mM urea, respectively, for 480 Fe/protein.

[5] = molecular target: T1, ferritin; experiment: Iron release from ferritin with Desferal substituted for bipyridyl, Fe(III)-Desferal complex monitored at 430 nm; format: biochemical; settings: H-Wild Type ferritin, in the absence of urea
Excerpt: Desferal® (desferrioxamine mesylate or DFO), a chelator of Fe(III), is currently the drug of choice to remove Fe from patients with excess tissue iron accumulated from monthly transfusions to treat betaglobin gene mutations (Sickle Cell Disease and Beta Thalassemia). Positive selection has made the mutations relatively common (<10%) in areas of the world where malaria is endemic. […] In order to determine if unfolding ferritin pores increased Desferal® chelation of ferritin Fe, the chelator was substituted for bipyridyl in the mixture of NADH/FMN usually used. Formation of the Fe(III)— Desferal® complex was monitored at 430 nm, the absorbance maximum under the conditions used.

[6] = tested on: ferritin; settings: Crichton et al. 1980; cited from earlier work
[7] = 1M NaCl, MOPS buffer (data not shown)
[8] = 1.0 mM to 1 M urea or guanidine

## Triton X-100
[1]; Triton X-100, enhancement of iron release
  most effective concentration: 1.0-10 % (volume/volume)
[1]; Triton X-100 at 1% and 10%
  effect on ferritin iron release (formation rate of Fe(II)-bipyridyl): comparable to the effect of 1 and 10 mM urea
[1]
  increase in the initial rate of iron release: 2-3 fold
[2]; 1.0% and 10% (data not shown)
  toxicity to cells: toxic

## Cl.N=C(N)N [guanidine, guanidine hydrochloride]
[1]; Gd.HCl at 0.1 mM
  effect on formation rate of Fe(II)-bipyridyl: increased rates significantly
[1]; Gd.HCl at 1 and 10 mM
  effect on ferritin iron release (formation rate of Fe(II)-bipyridyl): comparable to the effect of 1 and 10 mM urea
[2]; 1 mM, 24 hours at 37° C.
  Average % nonviable cells: 6%
[2]; indicated concentrations (1 mM)
  cell viability versus cells in normal medium: No significant difference

## [Cl-].[Na+] [NaCl, Sodium chloride, reference compound]
[1]; [7]
  initial rate of Fe(II)-bipyridyl formation: decreased
  total amount of Fe chelated: decreased

## NC(N)=O [urea]
[1]; 1 mM urea
  time for removal of >95% of the Fe: 33 min
[1]; 10 mM urea
  time for removal of >95% of the Fe: 13 min
[1]; 1 M urea
  increase over the initial rate without urea: 4.81 fold
  time for removal of >95% of the Fe: 4 min
[1]; 2 M urea
  initial rate of Fe(II) bipyridyl formation: 1.02±0.11×10^−3 mmoles/second
  time for removal of >95% of the Fe: 20 min
[1]; H-WT ferritin, 1 mM urea
  initial rate of Fe(II) bipyridyl formation: 1.90±0.11×10^−3 mmole/second and 1.9±0.1×10^−3 mmole/second
[1]; H-WT ferritin, 1 M urea
  initial rate of Fe(II) bipyridyl formation: 4.68±0.06×10^−3 mmoles/second
[1]; chelator 2,2′-bipyridine, absorbance at 522 nm=0.4
  decrease in the time to release 50% of the total iron in ferritin: 10 fold
[1]
  increase in the initial rate of iron release: 2-4 fold
[1]; urea, enhancement of iron release
  most effective concentrations: 1 to 1000 mM
[1]; urea-treated protein, no reductant
  Fe(II)-bipyridyl formation in the absence of FMN/NADH: No Fe(II)-bipyridyl formed
[3]; [8]
  downshift of a helix/coil transition: 10 °C
  helix/coil transition temperature after downshift: 43 °C
[3]; WT ferritin, 1 mM urea
  Tm (midpoint) of decrease in helix structure: 41 °C
  helix loss: ~10%
[3]; wild type ferritin
  increase of transition temperature in the absence of urea versus 1 mM urea: 12 °C
[4]; 10 mM urea, 480 Fe/protein
  rate of Fe uptake and mineralization: 0.57±0.01 ΔA650s^−1
[4]; urea-treated ferritin
  Fe(II) oxidation, a measure of Fe(II) entry and binding to the ferroxidase site: slightly inhibited

## CC(=O)N(O)CCCCCNC(=O)CCC(=O)N(O)CCCCCNC(=O)CCC(=O)N(O)CCCCCN [Desferal®, desferrioxamine mesylate]
[5]
  Fe that could be chelated: 10%
[6]
  Fe removal from ferritin in solution: removes little Fe
